Key:
[1] = tested on: L. monocytogenes 164; test: MIC for planktonic cell growth (A625nm); type: cell-based, Listeria monocytogenes; conditions: ≥80% inhibition, 24 h
Protocol: (§1) Ten concentrations of NAC, RLs, and UA were tested to determine the minimum inhibitory concentration for planktonic growth, and subsequently, the six highest concentrations were applied on preformed biofilms to evaluate the biofilm eradication ability of the compounds. MIC was defined as the lowest substance concentration able to inhibit at least 80% of microbial growth (MICPC80 for planktonic cells, MICBC80 for further growth of biofilm cells), inhibit 80% of metabolic activity (MICBM80 for biofilm metabolic activity, MICMPB80 for metabolic activity of preformed biofilm), prevent biofilm formation by at least 80% (MICBF80 for biofilm formation), or reduce a preformed biofilm by at least 80% (MICBR80 for biofilm reduction). The results of MICs are summarized in Table 1 (planktonic cells) and Table 2 (biofilm-associated cells).
(§2) The determination of MICs was performed according to Chlumsky et al.. Briefly, 96-well flat-bottomed microtiter plates were inoculated with 75 µL (for biofilm formation) or 100 µL (for preformed biofilm) of bacterial suspension (A625nm 0.08 to 0.1) in technical triplicates and were then carefully mixed with the dilution series of the test substances (24 h cultivation at 25 °C for S. Infantis, 37 °C for other strains) or were directly cultivated to preform biofilms (18 h). For a positive control of bacterial growth, the inoculum was mixed with a pure sterile medium. […] To evaluate planktonic cells growth (MICPC80) and further growth of biofilm cells (MICBC80), the optical density of the content of the microtiter plates was measured spectrophotometrically at 625 nm before and after 24 h (for biofilm formation) of cultivation or before and after additional 20 h incubation with the tested compound (for preformed biofilm). […] To evaluate the inhibition of biofilm formation (MICBF80) and reduction in preformed biofilms (MICBR80), biomass was quantified using crystal violet staining, and its metabolic activity (MICBM80 and MICMPB80) was estimated by using the MTT (thiazyl tetrazolium bromide, Sigma-Aldrich, USA) reduction assay, both measured spectrophotometrically at 595 nm.
(§3) All inhibitions were calculated using the formula of Chlumsky et al. below (Equation (1)):(1) A625(595)nm inhibition (%)=A625(595)nm (control) – A625(595)nm(natural substance)/A625(595)nm (control)× 100 where A625(595)nm (control) is the absorbance of bacterial suspension/biofilm itself, and A625(595)nm(natural substance) is the absorbance of the bacterial suspension/biofilm with the added natural substance (NAC, RLs, and UA).
(§4) When the minimum inhibitory concentration could not be determined, the MIC was established as >the highest tested concentration for NAC, RLs, and UA.

[2] = tested on: L. monocytogenes 149; test: MIC for planktonic cell growth (A625nm); type: cell-based, Listeria monocytogenes; conditions: ≥80% inhibition, 24 h
Protocol: as §1, §2, §3, §4

[3] = tested on: L. monocytogenes 164; test: CLSM analysis, biofilm removal (preformed biofilm); type: cell-based, Listeria monocytogenes; conditions: for Thickness (µm) MICBM80: substance at its MIC
Protocol: (§5) Biofilm prevention and removal analyses were performed using previously determined minimum inhibitory and subinhibitory concentrations for metabolic activity (MICBM80, subCBM80; MICMPB80, subCMPB80) of NAC, RLs, and UA specific for each tested strain. Selected concentrations were used to evaluate the inhibition of biofilm formation (biofilm prevention) and the reduction in previously formed biofilms (biofilm removal) for the same set of microorganisms, with the exception of S. Infantis, which was excluded from the analysis due to its inability to form biofilm in the selected microtiter plate. Biofilm prevention and removal were observed using CLSM with specific staining to distinguish between live and membrane-compromised cells. Images were analyzed to evaluate (i). the total volume of the biomass, (ii). ratios of live and membrane-compromised cells, and (iii). to calculate biofilm volume reduction for individual organisms after the respective treatment types. The total biofilm volume was normalized by the area of the well and expressed as an average biofilm thickness. Complete data are provided in Supplementary Materials (Tables S1–S8).
(§6) At first, bacterial suspensions were cultivated in microtiter plates to produce overnight biofilms (18 h). […] cells were then washed out, and the remaining biofilms were further cultivated for an additional 20 h with selected compounds. Following biofilm cultivation, biomass was observed using CLSM with live/membrane-compromised cell staining. Biomass images from biofilm removal treatments were similar to results from biofilm prevention, where biomass was highly diversified across the bacterial species and strains. Visually, biomass images were fairly consistent within the quadruplicates for each tested organism. Non-treated biofilms of S. aureus contained consistent biomass spread across the well (S. aureus 816) or grown around the edges (S. aureus 1241). […] PI staining identified membrane-compromised cells spread across S. aureus 816 biomass and incorporated in the edge of biomass and/or in the central part of the well (Figure 4B,C). […] Membrane-compromised cells appeared contained around the edges (S. aureus 1241), disturbed across the well (in both strains of L. monocytogenes), or in separated biomass in the central part of the well (in both strains of E. coli when treated with the subinhibitory concentration of RLs) (Figure 4D,E).
(§7) For both inhibition and reduction of biofilms, overnight cultures from BHI were diluted in TSB + 1% Glc to reach an absorbance of 0.08 to 0.1 at 625 nm. The inoculum (150 µL) was transferred into wells of the 96-well flat-bottomed Ibidiμ-Plate (Ibidi, Gräfelfing, Germany) and mixed with 150 µL of each of the three tested substances in technical quadruplicates, followed by incubation at 37 °C for 24 h. Simultaneously, the prepared bacterial suspensions were inoculated to an additional microtiter plate (200 µL) and allowed to form biofilm overnight (18 h at 37 °C). After the incubation, the content of the well was drained off, and 200 µL of each of the three tested substances was added to the plate, which was then incubated for an additional 20 h. The used concentrations of the substances represented the subinhibitory and minimum inhibitory concentrations for metabolic activity (subCBM80, MICBM80; subCMPB80, MICMPB80). Both setups contained a positive control of the bacterial growth (inoculum mixed with sterile TSB + 1% Glc medium) and a control monitoring microbial contamination (sterile medium). Non-treated wells were used as a positive control for comparison between non-treated and treated biofilm mass.
(§8) Prior to the imaging, the wells were stained with the LIVE/DEAD® BacLight™ Bacterial Viability Kit (Thermo Fisher Scientific, MA, USA) following the manufacturer’s guidelines and Drago et al.. […]

[4] = tested on: L. monocytogenes 149; test: CLSM analysis, biofilm removal (preformed biofilm); type: cell-based, Listeria monocytogenes; conditions: 20 h exposure, mean ± SD; for Thickness (µm) MICBM80: substance at its MIC; for Thickness (µm) subCBM80: substance at subinhibitory concentration
Protocol: as §5, §6, §7, §8

[5] = tested on: S. Enteritidis ATCC 13076; test: MIC for biofilm formation (crystal violet staining); type: cell-based, Salmonella enterica Enteritidis; conditions: for MICBF80: ≥80% prevention, 24 h
Protocol: as §1
(§9) The determination of MICs was performed according to Chlumsky et al.. […] To evaluate planktonic cells growth (MICPC80) and further growth of biofilm cells (MICBC80), the optical density of the content of the microtiter plates was measured spectrophotometrically at 625 nm before and after 24 h (for biofilm formation) of cultivation or before and after additional 20 h incubation with the tested compound (for preformed biofilm). […] To evaluate the inhibition of biofilm formation (MICBF80) and reduction in preformed biofilms (MICBR80), biomass was quantified using crystal violet staining, and its metabolic activity (MICBM80 and MICMPB80) was estimated by using the MTT (thiazyl tetrazolium bromide, Sigma-Aldrich, USA) reduction assay, both measured spectrophotometrically at 595 nm.
as §3, with “UA). […]” for “UA).”

[6] = tested on: S. Enteritidis ATCC 13076; test: MIC for planktonic cell growth (A625nm); type: cell-based, Salmonella enterica Enteritidis; conditions: for MICPC80: ≥80% inhibition, 24 h
Protocol: as §1, §9
as §3, with “UA). […]” for “UA).”

[7] = tested on: L. monocytogenes 164; test: MIC for reduction of preformed biofilm (crystal violet staining); type: cell-based, Listeria monocytogenes; conditions: for MICBR80: ≥80% reduction of preformed biofilm (18 h), 20 h with substance
Protocol: as §1
The determination of MICs was performed according to Chlumsky et al.. Briefly, 96-well flat-bottomed microtiter plates were inoculated with 75 µL (for biofilm formation) or 100 µL (for preformed biofilm) of bacterial suspension (A625nm 0.08 to 0.1) in technical triplicates and were then carefully mixed with the dilution series of the test substances (24 h cultivation at 25 °C for S. Infantis, 37 °C for other strains) or were directly cultivated to preform biofilms (18 h). For a positive control of bacterial growth, the inoculum was mixed with a pure sterile medium. Furthermore, the sterile medium was included in the plate as a marker of potential microbial contamination. To evaluate planktonic cells growth (MICPC80) and further growth of biofilm cells (MICBC80), the optical density of the content of the microtiter plates was measured spectrophotometrically at 625 nm before and after 24 h (for biofilm formation) of cultivation or before and after additional 20 h incubation with the tested compound (for preformed biofilm). The difference of A625nm was considered as a measure of the ability of cells to grow in the presence of the tested substances. To evaluate the inhibition of biofilm formation (MICBF80) and reduction in preformed biofilms (MICBR80), biomass was quantified using crystal violet staining, and its metabolic activity (MICBM80 and MICMPB80) was estimated by using the MTT (thiazyl tetrazolium bromide, Sigma-Aldrich, USA) reduction assay, both measured spectrophotometrically at 595 nm.
as §3, §4

[8] = preformed biofilm, 20 h exposure, mean ± SD

Structure (SMILES) | MICPC80 [1] [µg/mL] | MICPC80 [2] [µg/mL] | Thickness (µm) MICBM80 [3, 8] [µm] | Thickness (µm) MICBM80 [4] [µm] | Thickness (µm) subCBM80 [4] [µm] | maximal achieved inhibition (MICBF80 not reached) ([5]; within tested concentrations) [%] | MICBF80 [5] | maximal achieved inhibition (MICPC80 not reached) ([6]; within tested concentrations) [%] | MICPC80 [6] | MICBR80 [7] | proportion of membrane-compromised cells ([3]; 20 h, MIC and subinhibitory concentration) | Thickness (µm) subCBM80 ([3]; preformed biofilm, 20 h exposure, substance at subinhibitory concentration, mean ± SD) [µm] | maximal achieved inhibition (MICBR80 not reached), biofilm reduction ([7]; preformed biofilm, within tested concentrations) [%]
CC(=O)c1c(O)c(C)c(O)c2c1OC1=CC(=O)C(C(C)=O)C(=O)C12C (single isomer, unassigned; (+)) [UA, (+)-usnic acid] | 1.96 | 0.98 | 440 ± 60.8 | 317 ± 62.3 | 276 ± 26.8 | 25 | > 31.3 µg/mL | 42 | > 31.3 µg/mL | 1.96 µg/mL | – | – | –
CC(=O)N[C@@H](CS)C(=O)O [NAC, N-Acetyl-L-cysteine] | 6250 | 3130 | 345 ± 62 | 338 ± 85.7 | 332 ± 51.2 | – | 12,500 µg/mL | – | 12,500 µg/mL | > 100,000 µg/mL | up to 20% | 335 ± 23.1 | 46

Source: paper PMC8583417, “Evaluation of the Antimicrobial Efficacy of N-Acetyl-L-Cysteine, Rhamnolipids, and Usnic Acid—Novel Approaches to Fight Food-Borne Pathogens” (International Journal of Molecular Sciences, 2021)
